In patent US20230148450A9, “BICYCLIC HETEROARYL COMPOUNDS AND USES THEREOF” (Revolution Medicines, Inc., priority 2019, published 2023):
Counter-ions that a name gives are not always drawn. Like-named read-outs stand apart in the source and are kept apart here.

Experiments:
[1] = molecular target: T1, SOS1-mediated exchange of KRAS-4B:GDP to KRAS-4B:GTP (Homo sapiens, UniProt Q07889); assay: Bodipy-FL-GTP Association Assay; assay type: biochemical; conditions: SOS1 GEF activity on KRAS-4B, 22° C.
T1 construct: SOS1 (Cytoskeleton Inc., Cat. CS-GE02); purchased Cytoskeleton Inc. CS-GE02 (SOS1); CSRS03 (KRAS4-B)
T1 sequence (Q07889 564-1049 limits assumed): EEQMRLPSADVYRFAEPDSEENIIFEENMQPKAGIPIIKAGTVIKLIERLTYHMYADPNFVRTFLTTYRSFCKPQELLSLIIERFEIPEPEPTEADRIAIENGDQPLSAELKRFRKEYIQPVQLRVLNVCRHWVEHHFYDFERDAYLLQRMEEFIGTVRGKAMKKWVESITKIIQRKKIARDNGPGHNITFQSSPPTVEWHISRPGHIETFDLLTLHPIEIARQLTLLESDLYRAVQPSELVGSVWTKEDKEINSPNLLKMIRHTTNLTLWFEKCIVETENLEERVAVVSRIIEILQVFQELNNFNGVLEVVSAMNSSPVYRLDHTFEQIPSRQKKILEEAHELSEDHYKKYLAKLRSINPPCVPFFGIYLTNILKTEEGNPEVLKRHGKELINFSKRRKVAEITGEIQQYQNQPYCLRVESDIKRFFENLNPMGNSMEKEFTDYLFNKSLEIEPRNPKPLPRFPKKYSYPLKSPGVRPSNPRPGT
Protocol: A low IC50 value for a given compound is indicative of high potency of said compound in inhibiting the guanine nucleotide exchange factor (GEF) activity of SOS1 on KRAS-4B in this assay setting. Reagents: BODIPY FL GTP (ThermoFisher Scientific, Cat. G12411); KRAS4-B (Cytoskeleton Inc., Cat. CSRS03); SOS1 (Cytoskeleton Inc., Cat. CS-GE02); 2× Assay Buffer: 40 mM Tris-HCl, pH 7.5; 100 mM NaCl; 20 mM MgCl2; 0.1 mg/mL BSA; 0.02% NP-40 Assay Procedure: Test compounds were dissolved in DMSO to create 20 mM master stocks. The stocks were diluted in a 3× dilution series in 100% DMSO to achieve 100× compound stocks. A 1 μl spot of each test compound stock was delivered to two adjacent wells of a 96-well assay plate prior to running the assay. Reaction Mix preparation: The following were mixed in order at room temperature to obtain the “Reaction Mix” (5.75 mL 2× Exchange Buffer; 3.22 mL MilliQ ddH2O; 3 μL 5 mM BODIPY FL GTP; 230 μL 50 μM KRAS-4B; 9.203 mL Total volume. Reaction initiation: 80 μL of Reaction Mix was pipetted into each well of a half-area black 96-well plate (Corning, Cat. 3686) containing either a 1 μL spot of DMSO or a 1 μL spot test compound at the concentrations listed above. 20 μL of 1 μM SOS1 was then added to each well to initiate the reaction. For the no GEF control wells this was replaced with 1× exchange buffer. Kinetic measurement: The reaction was monitored in a SpectraMax M2 Microplate Reader (Molecular Devices) under the following protocol: 5 second rapid circular mixing before first read; 61 readings, 30 seconds apart; Assay temperature: 22° C.; Excitation wavelength: 485 nm; Emission wavelength: 513 nm. Data Analysis: The V max values for the SOS1-mediated BODIPY FL GTP exchange curves in the presence of test compounds were normalized to the most dilute test sample columns or DMSO only control wells to give the % Activity for each concentration of test compound. Plots of % Activity vs. the Log10 of the compound concentration were fit by non-linear regression to a 4-parameter logistic model.

[2] = molecular target: T2, SOS1 nucleotide exchange of KRAS (catalytic domain of SOS1, residues 564-1049; wild-type KRAS) (Homo sapiens, UniProt Q07889); assay: Mode of Action Assay: Inhibition of SOS1 Nucleotide Exchange Activity (TR-FRET); assay type: biochemical; conditions: TR-FRET signal
T2 construct: tagless catalytic domain of SOS1 (residues 564-1049)
T2 sequence (Q07889 564-1049): T1 sequence (Q07889 564-1049 limits assumed)
Outline: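 SOS1 catalytic domain (564-1049, 100 nM as diluted) preincubated 20 min with compounds (100 μM–1.7 nM, 11-point 3-fold) in HEPES pH 7.5 buffer with MgCl2. Then mixed with avi-KRAS(1-169), Streptavidin-Tb and EDA-GTP-DY-647P1 for 30 min at room temperature. TR-FRET normalized to DMSO and positive control, triplicates; IC50 by four-parameter logistic fit.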

[3] = molecular target: T3, SOS1 catalytic domain (residues 564-1049) (Homo sapiens, UniProt Q07889); assay: Binding affinity to SOS1 using Surface Plasmon Resonance (SPR); conditions: avi-tagged SOS1 catalytic domain immobilized on sensor chip; read-out: SOS1 SPR Equilibrium Kd
T3 construct: SOS1 catalytic domain (residues 564-1049) immobilized on a sensor chip
T3 sequence (Q07889 564-1049): T1 sequence (Q07889 564-1049 limits assumed)
Outline: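 Avi-tagged human SOS1 catalytic domain (564-1049) captured on streptavidin chip (~6000 RU); compounds flowed at 50 μL/min, 5 μM to 4.9 nM in ten 2-fold steps, in HEPES/NaCl/P20 buffer with 2% DMSO, double-referenced. Kd from end-of-association response plotted versus concentration.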

[4] = tested on: cellular pERK in PC-9 cells (EGFR Ex19Del); assay: Potency Assay: pERK; assay type: cell-based; conditions: Homo sapiens, read-out: SOS1 pERK IC50
Outline: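 Cells plated the day before and treated 1 h at 37 °C with 10-point 3-fold dilutions in duplicate, top 10 μM. pERK1/2 in lysates read by AlphaLISA SureFire Ultra. IC50 from 4-parameter sigmoidal fit of signal vs log concentration.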

[5] = PC-9 cells (EGFR Ex19Del), 1 hour incubation, AlphaLISA p-ERK1/2

Row | Structure (SMILES) | IC50 [1] | IC50 [2] | Kd [3] | IC50 [4, 5] | IC50 ([4]; PC-9, 1 h)
1 | Cc1nc(N[C@H](C)c2cccc(C(F)(F)F)c2)c2sc(C3=CCNCC3)cc2n1 [Example 1, 2-methyl-6-(1,2,3,6-tetrahydropyridin-4-yl)-N-[(1R)-1-[3-(trifluoromethyl)phenyl]ethyl]thieno [3,2-d] pyrimidin-4-amine] | 1000 to 5000 nM |  |  |  | 
2 | C[C@@H](Nc1ncnc2sc(C3=CCNCC3)cc12)c1cc(N)cc(C(F)(F)F)c1 [Example 3, N-[(1R)-1-[3-amino-5-(trifluoromethyl)phenyl]ethyl]-6-(1,2,3,6-tetrahydropyridin-4-yl)thieno[2,3-d]pyrimidin-4-amine] | 1000 to 5000 nM |  |  |  | 
3 | COCC(=O)N1CC=C(c2cc3c(N[C@H](C)c4cc(N)cc(C(F)(F)F)c4)ncnc3s2)CC1 [Example 4, 1-[4-(4-{[(1R)-1-[3-amino-5-(trifluoromethyl)phenyl]ethyl]amino}thieno[2,3-d]pyrimidin-6-yl)-1,2,3,6-tetrahydropyridin-1-yl]-2-methoxyethan-1-one] | 1000 to 5000 nM |  |  |  | 
4 | Cc1nc(N[C@H](C)c2cccc(C(F)(F)F)c2)c2sc([C@]3(O)CC[C@@H](O)CC3)cc2n1 [Example 5, trans-1-(2-methyl-4-{[(1R)-1-[3-(trifluoromethyl)phenyl]ethyl]amino}thieno[3,2-d]pyrimidin-6-yl) cyclohexane-1,4-diol] | > 5000 nM |  |  |  | 
5 | Cc1nc(N[C@H](C)c2cccc(C(F)(F)F)c2)c2sc([C@]3(O)CC[C@H](O)CC3)cc2n1 [Example 6, cis-1-(2-methyl-4-{[(1R)-1-[3-(trifluoromethyl)phenyl]ethyl]amino}thieno[3,2-d]pyrimidin-6-yl)cyclohexane-1,4-diol] | 1000 to 5000 nM |  |  |  | 
6 | C[C@@H](Nc1ncnc2sc(C3(O)CCC(O)CC3)cc12)c1cc(N)cc(C(F)(F)F)c1 (stereo partly drawn) [Example 7, 1-(4-{[(1R)-1-[3-amino-5-(trifluoromethyl)phenyl]ethyl]amino}thieno[2,3-d]pyrimidin-6-yl)cyclohexane-1,4-diol] | < 1000 nM |  |  |  | 
7 | C[C@@H](Nc1ncnc2cc(C3=CCNCC3)sc12)c1cc(N)cc(C(F)(F)F)c1 [Example 9, N-[(1R)-1-[3-amino-5-(trifluoromethyl)phenyl]ethyl]-6-(1,2,3,6-tetrahydropyridin-4-yl)thieno[3,2-d]pyrimidin-4-amine] | < 1000 nM |  |  |  | 
8 | C[C@@H](Nc1nc(Cl)nc2[nH]c(C(=O)N3CCOCC3)nc12)c1cccc(C(F)(F)CO)c1 [Example 73, (R)-(2-chloro-6-((1-(3-(1,1-difluoro-2-hydroxyethyl)phenyl)ethyl)amino)-9H-purin-8-yl)(morpholino)methanone] |  | < 1000 nM | ≤ 400 nM | > 1000 nM | 
9 | C[C@@H](Nc1nc(Cl)cn2nc(C(=O)N3CCOCC3)cc12)c1cc(N)cc(C(F)(F)F)c1 [Example 74] |  | > 1000 nM | > 400 nM | < 1000 nM | 
10 | Cc1cn2nc(C(=O)N3CCN(C4COC4)CC3)cc2c(N[C@H](C)c2cc(N)cc(C(F)(F)F)c2)n1 [Example 76] |  | < 1000 nM | ≤ 400 nM | < 1000 nM | 
11 | Cc1cn2nc(C(=O)N3CC4CC3CN4C)cc2c(N[C@H](C)c2cc(N)cc(C(F)(F)F)c2)n1 (stereo partly shown) [Example 81] |  | < 1000 nM | ≤ 400 nM | < 1000 nM | 
12 | Cc1cn2nc(C(=O)N3CCN4CCC4C3)cc2c(N[C@H](C)c2cc(N)cc(C(F)(F)F)c2)n1 (stereo partly shown) [Example 82] |  | < 1000 nM | ≤ 400 nM | < 1000 nM | 
13 | C[C@@H](Nc1ncnc2sc(C(=O)N3CCOCC3)cc12)c1cccc(C(F)(F)CO)c1 [Example 83, (R)-(4-((1-(3-(1,1-difluoro-2-hydroxyethyl)phenyl)ethyl)amino)thieno[2,3-d]pyrimidin-6-yl)(morpholino)methanone] |  | < 1000 nM | ≤ 400 nM | < 1000 nM | 
14 | C[C@@H](Nc1ncnc2sc(C(=O)N3CCN(C4COC4)CC3)cc12)c1cccc(C(F)F)c1F [Example 84, (R)-(4-((1-(3-(difluoromethyl)-2-fluorophenyl)ethyl)amino)thieno[2,3-d]pyrimidin-6-yl)(4-(oxetan-3-yl)piperazin-1-yl)methanone] |  | < 1000 nM | ≤ 400 nM | < 1000 nM | 
15 | C[C@@H](Nc1nccc2nc(C(=O)N3CCNCC3)cn12)c1cccc(C(F)F)c1F [Example 85, [5-[[(1R)-1-[3-(difluoromethyl)-2-fluoro-phenyl]ethyl]amino]imidazo[1,2-c]pyrimidin-2-yl]-piperazin-1-yl-methanone hydrochloride] |  | < 1000 nM | ≤ 400 nM |  | < 1000 nM
16 | C[C@@H](Nc1nccc2nc(C(=O)N3CCN(C4COC4)CC3)cn12)c1cccc(C(F)F)c1F [Example 87] |  | < 1000 nM | ≤ 400 nM | > 1000 nM | 
17 | C[C@@H](Nc1nccc2nc(C(=O)N3CC4(C3)CN(C3COC3)C4)cn12)c1cccc(C(F)F)c1F [Example 88] |  | < 1000 nM | ≤ 400 nM | < 1000 nM | 
18 | CC(=O)N1CC2(C1)CN(C(=O)c1cn3c(N[C@H](C)c4cccc(C(F)F)c4F)nccc3n1)C2 [Example 89] |  | < 1000 nM | ≤ 400 nM | < 1000 nM | 
19 | C[C@@H](Nc1nccc2nc(C(=O)N3CC4(C3)CN(C3CC3)C4)cn12)c1cccc(C(F)F)c1F [Example 90] |  | < 1000 nM | ≤ 400 nM | < 1000 nM | 
20 | C[C@@H](Nc1nccc2nc(C(=O)N3CC4(CN(CC(F)(F)F)C4)C3)cn12)c1cccc(C(F)F)c1F [Example 91] |  | < 1000 nM | ≤ 400 nM | < 1000 nM | 
21 | C[C@@H](Nc1nc(Cl)nn2cc(C(=O)N3CC4(CN(C)C4)C3)cc12)c1cccc(C(F)(F)F)c1 [Example 97] |  | < 1000 nM | ≤ 400 nM | < 1000 nM | 
22 | C[C@@H](Nc1nc(Cl)nn2cc(C(=O)N3CC4(CN(C)C4)C3)cc12)c1cccc(C(F)F)c1F [Example 99] |  | < 1000 nM | ≤ 400 nM | < 1000 nM | 
23 | C[C@@H](Nc1nc(Cl)nn2cc(C(=O)N3CC4(COC4)C3)cc12)c1cccc(C(F)F)c1F [Example 100] |  | < 1000 nM | ≤ 400 nM | < 1000 nM | 
24 | C[C@@H](Nc1nc(Cl)nc2c1nc(C(=O)N1CCOCC1)n2C)c1cccc(C(F)(F)CO)c1 [Example 103, (R)-(2-chloro-6-((1-(3-(1,1-difluoro-2-hydroxyethyl)phenyl)ethyl)amino)-9-methyl-9H-purin-8-yl)(morpholino)methanone] |  | < 1000 nM | > 400 nM | < 1000 nM | 
